In brackets after ≈: the same amount, converted by molar mass. Entries after “also recorded” stand apart in the source; their conditions may differ. Read-outs that look alike come from different tables or passages of the source. Bridge positions count the residues as written; N and C are the ends. Ends that are not written are not given here. Peptide text beside a SMILES is read from it.
What was measured:
human red blood cells = test system: human red blood cells
Method: To measure the hemolytic activity of peptides, 2% human red blood cells were added to various dilutions of peptide reconstituted in PBS in a sterile U-bottom polystyrene 96 well plate (Dean et al., 2011). The commercially obtained, deidentified human RBCs (BIOIVT Westbury, NY) were prepared as follows: 1 mL of K2EDTA whole blood from a healthy donor was centrifuged at 1,600 g for 10 min and plasma was discarded. The remaining RBCs were washed 4 times with 1 ml 1×PBS (HyClone), then the pallet after the last wash was resuspended with 750 ul of 1×PBS. 2% RBCs suspension was prepared by adding 200 ul of washed cells to 9.8 mL of 1×PBS. […] of 2% RBCs were added to each well (n=3) containing diluted peptides resulting in final peptide concentration of 100, 10, and 1 μg/ml. 2% RBCs with 1×PBS alone served as the negative control (No peptide), and 2% RBC in deionized water as the positive control, leading to full lysis. The plate was incubated for 1 h at 37 C and then centrifuged at 1,000 rpm for 2 min. The supernatant was transferred to a fresh regular 96 well plate and read at OD540 as previously reported (Dean et al., 2011). Student's t-test was used to determine whether points were statistically significant.

E. coli O157:H7 51659 [1] = assay: EC50 antimicrobial activity assay (low salt, 10 mM sodium phosphate); format: cell-based, Escherichia coli; settings: MDR E. coli, 3 h
Method: (§1) Staphylococcus aureus ATCC 33592 (MDR) and BAA-1718, E. coli ATCC 51659 (MDR) and 4,157 were purchased from the American Type Culture Collection (Manassas, VA, United States). All strains are reference strains. Bacteria were grown in Tryptic Soy Broth (BD 211825), except E. coli 4157 which was grown in Nutrient Broth (Difco 234000), overnight in a shaking incubator (37 C). Bacteria were aliquoted, mixed with glycerol (final concentration of 20% of glycerol) and frozen at −80 C and enumerated via serial dilution and plating prior to experimentation.
The antimicrobial activity of the PHNX peptides and LL-37 (AnaSpec 61302) against bacteria was determined as previously described (Barksdale et al., 2016, 2017). […] Serial dilutions were then prepared in 1× Dulbecco's PBS and 8 ul of each dilution was spotted in triplicate on Tryptic Soy Agar plates, which were incubated (37 C, 24 h) and CFUs were counted (Barksdale et al., 2016, 2017). Bacterial survival at each peptide concentration was calculated based on the ratio of the number of colonies on each experimental plate and the average number of colonies observed for assay cultures lacking peptide. […] EC50 values were determined by fitting the data from the antimicrobial assays to a standard sigmoidal dose-response curve. […]

S. aureus MRSA 33592 [2] = format: cell-based, Staphylococcus aureus; settings: low salt, 10 mM sodium phosphate, 3 h
Method: as §1
The antimicrobial activity of the PHNX peptides and LL-37 (AnaSpec 61302) against bacteria was determined as previously described (Barksdale et al., 2016, 2017). Briefly, 1×10^5 CFU per well of bacteria were incubated with different peptide concentrations (n=3) in a 50-ul solution of 10 mM sodium phosphate buffer (3 h, 37 C). Serial dilutions were then prepared in 1× Dulbecco's PBS and 8 ul of each dilution was spotted in triplicate on Tryptic Soy Agar plates, which were incubated (37 C, 24 h) and CFUs were counted (Barksdale et al., 2016, 2017). Bacterial survival at each peptide concentration was calculated based on the ratio of the number of colonies on each experimental plate and the average number of colonies observed for assay cultures lacking peptide. The peptide concentration required to kill 50% of the viable bacteria in the assay cultures (EC5O) was determined by plotting percent survival as a function of the log of peptide concentration (log μg/ml) and fitting the data using GraphPad Prism 6 (GraphPad Software Inc., San Diego, CA, United States). For the purpose of graphing, samples that had no peptide (0 μg/ml) are plotted at 1×10^−7 μg/ml peptide. EC50 values were determined by fitting the data from the antimicrobial assays to a standard sigmoidal dose-response curve. […] Wells containing only 10 mM sodium phosphate buffer were used as sterility control.

S. aureus 33592 = format: cell-based, Staphylococcus aureus; settings: MDR S. aureus (MRSA) 33592, Mueller Hinton Broth
Method: as §1
(§2) The full range MIC activity testing of the peptides was then determined as previously reported using the Mueller Hinton Broth (BD 275730) in a 96 well plate following the CLSI protocol (Wiegand et al., 2008). Enumerated bacteria were diluted in MHB and 50 ul of 1×10^6 CFU/mL (5×10^4 CFU) was added to each well with 50 ul of a decreasing series of twofold peptide concentration. The plate was incubated for 16-20 h at 37 C and then read on a spectrophotometer at OD600 nm.

S. aureus BAA-1718 = format: cell-based, Staphylococcus aureus; settings: antibiotic susceptible S. aureus BAA-1718, Mueller Hinton Broth
Method: as §1, §2

E. coli 4157 [3] = format: cell-based, Escherichia coli
Method: as §1, §2

E. coli O157:H7 51659 [4] = assay: Antibacterial screening at 100 μg/ml; format: cell-based, Escherichia coli; settings: for bactericidal activity: 100 μg/ml, MDR E. coli
Method: as §1
(§3) The antibacterial screening test of the peptides (n=3) was first determined at a final peptide concentration of 100 μg/ml and a final bacterial concentration of 5×10^5 CFU/mL in Difco Mueller Hinton Broth (BD 275730) in a 96 well plate. The plate was incubated for 16-20 h at 37 C and then read on a spectrophotometer at OD600 nm. […] Wells containing medium only were used as sterility control, in the wells around the edge of the plates. LL-37 was used as a control in the first run of experiments against the MDR bacterial strains (Turner et al., 1998). […] The sequence of BF-CATH was derived from DBAASP database listed as cathelicidin-BF-34 with the following sequence: […]

E. coli 4157 [5] = assay: Antibacterial screening at 100 μg/ml; format: cell-based, Escherichia coli; settings: peptide 100 μg/ml
Method: as §1, §3

S. aureus MRSA 33592 [6] = assay: Antibacterial screening at 100 μg/ml; format: cell-based, Staphylococcus aureus; settings: MDR S. aureus
Method: as §1, §3

MDR E. coli 51659 = format: cell-based, Escherichia coli; settings: MDR E. coli O157:H7 51659, Mueller Hinton Broth (high salt)
Method: as §1, §2

E. coli ATCC 25922 = E. coli ATCC 25922 (Wang et al., 2008); cited from earlier work
[7] = peptide 1 μg/ml, 2% human RBCs (EDTA), 1 h

CC[C@H](C)[C@H](NC(=O)[C@H](CCCCN)NC(=O)[C@H](CCC(=O)O)NC(=O)[C@H](CCCCN)NC(=O)[C@H](CO)NC(=O)[C@H](CCCCN)NC(=O)[C@H](CCCNC(=N)N)NC(=O)[C@H](Cc1ccccc1)NC(=O)[C@H](Cc1ccccc1)NC(=O)[C@H](CC(=O)O)NC(=O)CNC(=O)[C@H](CC(C)C)NC(=O)[C@@H](N)CC(C)C)C(=O)NCC(=O)N[C@@H](CCCCN)C(=O)N[C@@H](CCC(=O)O)C(=O)N[C@@H](Cc1ccccc1)C(=O)N[C@@H](CCCCN)C(=O)N[C@@H](CCCNC(=N)N)C(=O)N[C@H](C(=O)N[C@H](C(=O)N[C@@H](CCC(N)=O)C(=O)N[C@@H](CCCNC(=N)N)C(=O)N[C@H](C(=O)N[C@@H](CCCCN)C(=O)N[C@@H](CC(=O)O)C(=O)N[C@@H](Cc1ccccc1)C(=O)N[C@@H](CC(C)C)C(=O)N[C@@H](CCCNC(=N)N)C(=O)N[C@@H](CC(N)=O)C(=O)N[C@@H](CC(C)C)C(=O)N[C@H](C(=O)N1CCC[C@H]1C(=O)N[C@@H](CCCNC(=N)N)C(=O)N[C@H](C(=O)N[C@@H](CCC(=O)O)C(=O)N[C@@H](CO)C(=O)O)[C@@H](C)O)C(C)C)[C@@H](C)CC)C(C)C)[C@@H](C)CC [LL-37, reference compound]
hemolysis (human red blood cells; [7]): negligible hemolysis
hemolysis (human red blood cells; peptide 100 μg/ml, 2% human RBCs (EDTA), 1 h): approximately 40%

FGKLLKLGKGLKG [PHNX-3]
EC50 (E. coli O157:H7 51659 [1]): no activity
EC50 (S. aureus MRSA 33592 [2]): no activity

CC[C@H](C)[C@H](NC(=O)[C@H](CCCCN)NC(=O)[C@H](CC(=O)O)NC(=O)[C@H](CC(C)C)NC(=O)[C@H](CC(C)C)NC(=O)[C@H](CCC(N)=O)NC(=O)CNC(=O)[C@H](C)NC(=O)[C@H](CC(C)C)NC(=O)[C@H](CC(N)=O)NC(=O)[C@H](CCCCN)NC(=O)[C@H](C)NC(=O)[C@H](C)NC(=O)[C@H](CC(N)=O)NC(=O)[C@H](CCCCN)NC(=O)[C@@H](NC(=O)[C@@H](NC(=O)[C@H](CC(=O)O)NC(=O)[C@H](CCSC)NC(=O)[C@H](CC(C)C)NC(=O)CN)[C@@H](C)O)C(C)C)C(=O)N[C@@H](CCCCN)C(=O)N[C@H]1CSSC[C@@H](C(=O)O)NC(=O)CNC(=O)[C@H]([C@@H](C)O)NC(=O)[C@H]([C@@H](C)CC)NC(=O)[C@H](CCCCN)NC1=O [PHNX-8] (H-GLMDTVKNAAKNLAGQLLDKIKCKITGC-OH; disulfide 23-28 (inferred); N-terminus and C-terminus assumed)
MIC (S. aureus 33592): without any activity; also recorded: no activity
MIC (S. aureus BAA-1718): without any activity; also recorded: no activity
hemolysis (human red blood cells): higher hemolytic activity
MIC (E. coli 4157 [3]; 4157): 32 µg/mL (≈ 10.9 µM)
growth inhibition in the screen (in words) (E. coli O157:H7 51659 [4]; peptide 100 μg/ml, MDR E. coli 51659): showed activity
bacterial survival (E. coli O157:H7 51659 [4]; peptide 100 μg/ml, antibiotic resistant E. coli O157:H7 51659): ~0%
growth inhibition in the screen (in words) (E. coli 4157 [5]; E. coli 4157): showed activity
bacterial survival (E. coli 4157 [5]; antibiotic susceptible E. coli 4157): ~0%

VRLIVAVRIWRR-NH2 (C-terminus assumed) [IDR-1018, reference compound]
hemolysis (human red blood cells; [7]): negligible hemolysis
bactericidal activity (E. coli O157:H7 51659 [4]): 100%
bactericidal activity (S. aureus MRSA 33592 [6]): 100%

FLLKLGLGKKKLL [PHNX-4]
hemolysis (human red blood cells): higher hemolytic activity

FLIKILKGGKGGK [PHNX-5]
EC50 (S. aureus MRSA 33592 [2]): > 10 µg/mL
hemolysis (human red blood cells): higher hemolytic activity

FIGAIASYLKKFR [PHNX-6]
EC50 (S. aureus MRSA 33592 [2]): 7.95 µg/mL

KRFKKFFRKLKKSVKKRAKEFFKKPRVIGVSIPF [BF-CATH, reference compound]
MIC (S. aureus 33592): not very effective
MIC (S. aureus BAA-1718): not very effective
MIC (MDR E. coli 51659): strong antimicrobial activity
MIC (E. coli 4157 [3]; antibiotic susceptible E. coli 4157, Mueller Hinton Broth): strong antimicrobial activity
bactericidal activity (E. coli O157:H7 51659 [4]): 100%
previously reported antimicrobial activity level (E. coli ATCC 25922): 2.3 µg/mL
bactericidal activity (S. aureus MRSA 33592 [6]): 100%

GVVDIIKGAGKKFAKGLAGKIANKK [PHNX-7]
EC50 (S. aureus MRSA 33592 [2]): 2.09 µg/mL
hemolysis (human red blood cells): higher hemolytic activity
MIC (MDR E. coli 51659): > 64 µg/mL

FGKLLKLGKGLGG [PHNX-2]
EC50 (E. coli O157:H7 51659 [1]): no activity
EC50 (S. aureus MRSA 33592 [2]): no activity

— patent US12033725B2, “Antimicrobial peptides and related methods” (GEORGE MASON UNIVERSITY, priority 2021, dated 2024)
